Results taken from the supplement of paper PMC10307832.

How the values were obtained:
Test in all cases: relative viability (nuclei count vs DMSO), 5 days (fraction); higher = more cells survive
MLN4924 + Palbociclib = compound: NS(=O)(=O)OC[C@@H]1C[C@@H](n2ccc3c(N[C@H]4CCc5ccccc54)ncnc32)C[C@@H]1O [MLN4924] + CC(=O)c1c(C)c2cnc(Nc3ccc(N4CCNCC4)cn3)nc2n(C2CCCC2)c1=O [Palbociclib] (partner 0.5 µM)
Outline: (§1)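 Five library-drug doses in √10 steps were combined with a fixed anchor-drug dose, or a single drug was given alone, by pin tool to lung cancer cell lines in 1536-well plates the day after seeding. Nuclei were stained and counted after 5 days. Relative viability is the nuclei count in treated wells over that in vehicle wells, taken as the median of duplicate plates.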

MLN4924 + Vorinostat = compound: NS(=O)(=O)OC[C@@H]1C[C@@H](n2ccc3c(N[C@H]4CCc5ccccc54)ncnc32)C[C@@H]1O [MLN4924] + O=C(CCCCCCC(=O)Nc1ccccc1)NO [Vorinostat] (partner 1 µM)
Outline: as §1

GSK126 + Decitabine = compound: CC[C@H](C)N1C=C(C2=C(C=C(C=C21)C3=CN=C(C=C3)N4CCNCC4)C(=O)NCC5=C(C=C(NC5=O)C)C)C [GSK126] + Nc1ncn([C@H]2C[C@H](O)[C@@H](CO)O2)c(=O)n1 [Decitabine] (partner 2 µM)
Outline: as §1

GSK126 + Alpelisib = compound: CC[C@H](C)N1C=C(C2=C(C=C(C=C21)C3=CN=C(C=C3)N4CCNCC4)C(=O)NCC5=C(C=C(NC5=O)C)C)C [GSK126] + Cc1nc(NC(=O)N2CCC[C@H]2C(N)=O)sc1-c1ccnc(C(C)(C)C(F)(F)F)c1 [Alpelisib] (partner 2 µM)
Outline: as §1

Row | Cell Line | relative viability (MLN4924 + Palbociclib; first compound 0.04 µM) | relative viability (MLN4924 + Palbociclib; first compound 0.1265 µM) | relative viability (MLN4924 + Palbociclib; first compound 0.4 µM) | relative viability (MLN4924 + Palbociclib; first compound 1.265 µM) | relative viability (MLN4924 + Palbociclib; first compound 4 µM) | relative viability (MLN4924 + Vorinostat; first compound 0.04 µM) | relative viability (MLN4924 + Vorinostat; first compound 0.1265 µM) | relative viability (MLN4924 + Vorinostat; first compound 0.4 µM) | relative viability (MLN4924 + Vorinostat; first compound 1.265 µM) | relative viability (MLN4924 + Vorinostat; first compound 4 µM) | relative viability (GSK126 + Decitabine; first compound 0.08 µM) | relative viability (GSK126 + Decitabine; first compound 0.253 µM) | relative viability (GSK126 + Decitabine; first compound 0.8 µM) | relative viability (GSK126 + Decitabine; first compound 2.53 µM) | relative viability (GSK126 + Decitabine; first compound 8 µM) | relative viability (GSK126 + Alpelisib; first compound 0.08 µM) | relative viability (GSK126 + Alpelisib; first compound 0.253 µM) | relative viability (GSK126 + Alpelisib; first compound 0.8 µM) | relative viability (GSK126 + Alpelisib; first compound 2.53 µM) | relative viability (GSK126 + Alpelisib; first compound 8 µM)
1 | NCI-H1437 | 0.292 | 0.321 | 0.228 | 0.187 | 0.134 | 0.769 | 0.621 | 0.385 | 0.229 | 0.193 | 0.584 | 0.569 | 0.536 | 0.499 | 0.527 | 1.07 | 0.934 | 0.869 | 0.824 | 0.993
2 | EMC-BAC-2 | 0.559 | 0.431 | 0.386 | 0.265 | 0.312 | 0.39 | 0.392 | 0.236 | 0.179 | 0.279 | 1.05 | 0.974 | 0.878 | 0.893 | 0.936 | 0.785 | 0.77 | 0.718 | 0.731 | 0.765
3 | NCI-H520 | 0.224 | 0.226 | 0.153 | 0.145 | 0.156 | 0.499 | 0.499 | 0.321 | 0.177 | 0.223 | 0.611 | 0.505 | 0.487 | 0.494 | 0.557 | 0.946 | 0.758 | 0.931 | 0.864 | 0.783
4 | NCI-H1993 | 0.792 | 0.428 | 0.422 | 0.362 | 0.377 | 0.645 | 0.26 | 0.29 | 0.309 | 0.314 | 0.686 | 0.597 | 0.575 | 0.555 | 0.605 | 0.632 | 0.72 | 0.773 | 0.748 | 0.661
5 | HCC-827 | 0.35 | 0.325 | 0.317 | 0.173 | 0.148 | 0.805 | 0.716 | 0.636 | 0.242 | 0.215 | 0.396 | 0.368 | 0.313 | 0.325 | 0.323 | 1.06 | 1 | 1.03 | 0.997 | 0.982
6 | NCI-H2087 | 0.184 | 0.184 | 0.19 | 0.0803 | 0.093 | 0.784 | 0.43 | 0.135 | 0.0537 | 0.125 | 0.246 | 0.272 | 0.269 | 0.293 | 0.346 | 0.993 | 1.21 | 1.26 | 0.919 | 1.05
